The values below come from patent US20100099118A1, “METHODS OF DETERMINING TOTAL PON1 LEVEL” (priority 2007, published 2010).

“And” between values parts separate entries of the source, which are not always exact repeats. Equal values may be shown once.

Experiment [1] has as its target purified human PON1 polymorphs (Homo sapiens, UniProt P27169). Put plainly: Specific activity of purified human PON1 polymorphs for TBBL in absence of HDL. In kind it is biochemical. To be noted: 0.25 mM TBBL, same for both polymorphs.
The target of experiment [2] is T1, serum PON1 (Homo sapiens, UniProt P27169).
T1 construct: The samples were collected from 54 healthy individuals at Rambam Medical Center; from tissue; host or cells: human serum from 54 healthy individuals
T1 sequence (P27169 2-355): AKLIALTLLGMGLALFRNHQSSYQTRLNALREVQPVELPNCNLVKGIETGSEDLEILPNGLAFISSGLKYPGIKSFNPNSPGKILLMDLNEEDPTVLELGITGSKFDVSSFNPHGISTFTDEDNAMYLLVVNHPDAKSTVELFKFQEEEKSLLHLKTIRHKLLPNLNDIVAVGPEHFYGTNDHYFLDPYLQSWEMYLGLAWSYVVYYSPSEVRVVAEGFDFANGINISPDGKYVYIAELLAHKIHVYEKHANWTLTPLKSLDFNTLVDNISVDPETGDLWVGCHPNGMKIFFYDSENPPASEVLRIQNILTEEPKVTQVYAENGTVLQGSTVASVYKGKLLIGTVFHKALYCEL
Put plainly: Lactonase activity in sera measured with TBBL. In kind it is biochemical. The conditions noted are these: QQ sera (n = 34); 0.25 mM TBBL; mean and S.D. Here is the method: (§1) Lactonase Activity in Sera: Human sera were kindly provided by Michael Aviram. The samples were collected from 54 healthy individuals at Rambam Medical Center (Haifa, Israel) with the approval of the institute's Helsinki committee. Phenotyping sera for the PON1-192R/Q polymorphism was performed by a two-substrate method [Eckerson, H. W., et al., Am J Hum Genet. 35: 1126-1138] as previously described [Gaidukov, L., M. Rosenblat, M. Aviram, and D. S. Tawfik. 2006. J Lipid Res 47: 2492-2502]. Sera were divided into aliquots, supplemented with β-mercaptoethanol (5 mM) to prevent oxidation, and stored frozen at −20° C. All assays were performed in 96-well plates (Nunc), using an automated microplate reader (Bio-Tek; optical length ˜0.5 cm). Lactonase activity was measured in activity buffer (50 mM Tris pH 8.0, 1 mM CaCl2) containing 0.25 mM of 5-thiobutyl butyrolactone (TBBL) [Gaidukov, L., et al., 2006 J Lipid Res 47: 2492-2502] and 0.5 mM 5,5′-dithio-bis-2-nitrobenzoic acid (DTNB) by monitoring the absorbance at 412 nm in a final volume of 200 μl (ε=7,000 OD/M). The serum was diluted 400-fold in 100 μl of activity buffer complemented with 1 mM DTNB. DTNB was used from 100 mM stock in DMSO. TBBL was used from 250 mM stock in acetonitrile. TBBL was diluted 500-fold in activity buffer containing 2% acetonitrile. The reaction was initiated by adding 100 μl of TBBL (0.5 mM) to 100 μl of sera dilution. The final sera dilution was 800-fold. All the reaction mixtures contained a final 1% acetonitrile. Rates of spontaneous hydrolysis of TBBL in buffer were subtracted from all the measurements. Activities were expressed as U/ml (1 unit=1 μmol of TBBL hydrolyzed per minute per 1 ml of undiluted serum).

Experiment [3] concerns serum PON1. Put plainly: Lactonase activity in sera measured with TBBL. It is filed as biochemical, human. To be noted: for TBBL lactonase activity: 0.25 mM TBBL, mean and S.D. The protocol:
as §1

For experiment [4], the target named is T2, serum PON1 (Homo sapiens, UniProt P27169, Q192R).
T2 construct: The samples were collected from 54 healthy individuals at Rambam Medical Center; from tissue; host or cells: human serum from 54 healthy individuals
T2 sequence (P27169 2-355 Q192R): as the sequence (P27169 2-355) above, with Q191R counted along it
The experiment is described as follows: Lactonase activity in sera measured with TBBL. In kind it is biochemical. The conditions noted are these: RR sera (n = 6); 0.25 mM TBBL; mean and S.D. Here is the method:
as §1

For experiment [5], the system named is serum PON1. The experiment is described as follows: Paraoxonase activity in sera. It is filed as biochemical. The conditions noted are these: 54 human sera. Here is the method: (§2) Phenyl acetate and paraoxonase activities were measured in 50 mM Tris pH 8.0 with 1 mM CaCl2. All activities were measured with 1 mM substrate, and expressed in Units/ml for phenyl acetate (1 μmol of phenyl acetate hydrolyzed per min per 1 ml undiluted serum) or mUnits/ml for other activities (1 nmol of substrate hydrolyzed per min per 1 ml undiluted serum). Horizontal bars represent the mean value for each group.
(§3) Paraoxonase and aryl esterase activity in sera: Paraoxonase activity in sera samples was measured in activity buffer with 1 mM paraoxon by monitoring the absorbance at 405 nm in a final volume of 200 μl (ε=10,515 OD/M). Arylesterase activity was measured in activity buffer with 1 mM phenyl acetate by monitoring the absorbance at 270 nm in a final volume of 200 μL (ε=7000D/M).

The subject of experiment [6] is serum PON1. The experiment is described as follows: Arylesterase activity in sera (phenyl acetate). To be noted: 54 human sera. It is filed as biochemical. The protocol:
as §2, §3

Another experiment relates to PON1. The conditions noted are these: from Gaidukov et al. 2006; cited from earlier work.
The mark [7] stands for this setting: 50 mM Tris pH 8.0, 1 mM substrate.

purified human PON1 polymorphs, sequence (P27169 2-355): as the sequence (P27169 2-355) above

Regarding `CCCCSC1CCC(=O)O1` (centres unmarked) [TBBL, 5-thiobutyl butyrolactone], the “Specific activity for TBBL” value in experiment [1] was 1.0±0.1 μmol/min/mg of protein. Moreover, the TBBL lactonase activity on serum PON1 [2] is 3.5 Units/ml and 3.5 ± 1.6 Units/ml; in the experiment with serum PON1 [3] (All sera (n = 54), μmol hydrolyzed per min per 1 ml undiluted serum) it was 3.8 ± 1.9 Units/ml; with serum PON1 [3] (RQ sera (n = 14)), 4.1 ± 2.1 Units/ml; at serum PON1 [4] it was 5.4 Units/ml and 5.4 ± 2.7 Units/ml. The “Variation of TBBLase activity between sera” value in the experiment on serum PON1 [3] (54 human sera) is given as 7 fold. Besides, the “Mean lactonase activity in RR sera relative to QQ sera” value in the experiment on serum PON1 [3] (RR vs QQ sera) came to 1.5 fold.

On to `CCOP(=O)(OCC)Oc1ccc([N+](=O)[O-])cc1` [Paraoxon], for which, in the experiment with serum PON1 [5] (setting [7]), the “Mean ± S.D. of activity” value is listed as 49.5 ± 36.6 Units activity and the Range of activity is 7.7-173.5 Units activity. For the same compound, in the experiment with serum PON1 [5], the “Variation of activity between sera (fold, in brackets under range)” value was “(23) fold”.

Consider `CC(=O)Oc1ccccc1` [Phenyl acetate], for which, in the experiment with serum PON1 [6] (setting [7]), the “Mean ± S.D. of activity” value came to 48.2 ± 20.9 Units activity and the Range of activity is reported as 15.6-100.6 Units activity. For the same compound, the “Variation of activity between sera (fold, in brackets under range)” value in the experiment on serum PON1 [6] is recorded as “(6) fold”. In the experiment on PON1, the “Stimulation upon HDL binding” value is listed as “ca. 2 fold”.
